Results as given in ChEMBL document CHEMBL3826905, “1'-Homonucleosides and their structural analogues: A review” (Eur J Med Chem, 2016).
pEC50, pIC50, pKd, pKi: −log10 of the molar value. Converted amounts (≈) assume the structure as drawn.

How the values were obtained:
[1] = Binding affinity to HSV1 uracil-DNA glycosylase after 30 mins by electrophoretic mobility shift assay; parameters: species or system Human alphaherpesvirus 1
[2] = system: Influenza A virus; assay: Antiviral activity against Influenza A virus; assay type: functional, organism-based
[3] = system: Human alphaherpesvirus 2; assay: Antiviral activity against Herpes simplex virus 2 G assessed as inhibition of virus-induced cytopathic effect by cell based assay; assay type: functional; conditions: Human alphaherpesvirus 2, strain G
[4] = system: Human alphaherpesvirus 1; assay: Antiviral activity against Herpes simplex virus 1 KOS assessed as inhibition of virus-induced cytopathic effect by cell based assay; assay type: functional; conditions: Human alphaherpesvirus 1, KOS
[5] = system: Human immunodeficiency virus 1; assay: Antiviral activity against HIV1 infected in human MT4 cells assessed as inhibition of virus-induced cytopathic effect; assay type: functional, organism-based; conditions: Human immunodeficiency virus 1, MT4
[6] = system: Hepatitis C virus; assay: Antiviral activity against Hepatitis C virus; assay type: functional, organism-based, Hepacivirus hominis
[7] = system: CCRF-CEM; assay: Growth inhibition of human CCRF-CEM cells; assay type: functional, cell-based
[8] = biological target: T1, Inosine-adenosine-guanosine-nucleoside hydrolase (Trypanosoma brucei brucei, UniProt O15727); assay: Inhibition of Trypanosoma brucei brucei inosine-adenosine-guanosine nucleoside hydrolase expressed in Escherichia coli
T1 sequence (O15727 whole entry): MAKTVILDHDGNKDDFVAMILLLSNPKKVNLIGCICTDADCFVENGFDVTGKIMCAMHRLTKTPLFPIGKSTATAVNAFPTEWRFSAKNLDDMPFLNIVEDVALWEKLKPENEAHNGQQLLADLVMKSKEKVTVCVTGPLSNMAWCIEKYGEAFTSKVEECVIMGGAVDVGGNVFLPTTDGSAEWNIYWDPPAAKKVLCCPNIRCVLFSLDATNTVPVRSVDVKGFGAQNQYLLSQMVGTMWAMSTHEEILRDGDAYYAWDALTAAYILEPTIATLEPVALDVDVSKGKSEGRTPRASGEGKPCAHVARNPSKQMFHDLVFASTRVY

[9] = biological target: T2, Inosine-uridine preferring nucleoside hydrolase (Crithidia fasciculata, UniProt Q27546); assay: Inhibition of Crithidia fasciculata inosine-uridine nucleoside hydrolase expressed in Escherichia coli using p-nitrophenyl beta-D-ribofuranoside as substrate by xanthine oxidase coupled enzyme assay
T2 sequence (Q27546 whole entry): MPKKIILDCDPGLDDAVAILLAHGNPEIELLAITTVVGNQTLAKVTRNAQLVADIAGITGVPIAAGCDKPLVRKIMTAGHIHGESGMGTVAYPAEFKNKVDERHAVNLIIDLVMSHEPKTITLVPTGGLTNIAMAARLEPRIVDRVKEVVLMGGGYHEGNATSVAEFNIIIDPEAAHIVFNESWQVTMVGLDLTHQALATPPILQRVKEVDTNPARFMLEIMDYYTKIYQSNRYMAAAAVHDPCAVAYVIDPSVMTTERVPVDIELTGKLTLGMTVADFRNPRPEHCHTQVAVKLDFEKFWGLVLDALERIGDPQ

[10] = Inhibition of Trichomonas vaginalis purine nucleoside phosphorylase using […] as substrate by xanthine oxidase coupled enzyme assay
[11] = Cytostatic activity against mouse L1210/0 cells; assay type: functional, cell-based
[12] = system: CCRF-CEM; assay: Cytostatic activity against human CEM cells; assay type: functional
[13] = system: MOLT-4; assay: Cytostatic activity against human Molt4/C8 cells; assay type: functional, cell-based
[14] = system: Human betaherpesvirus 5; assay: Antiviral activity against HCMV infected in HEL cells assessed as inhibition of virus-induced cytopathic effect after 6 days; assay type: functional, organism-based; conditions: Human betaherpesvirus 5, HEL, 144 h
[15] = system: Vesicular stomatitis virus; assay: Antiviral activity against Vesicular stomatitis virus; assay type: functional, organism-based
[16] = system: Vaccinia virus; assay: Antiviral activity against Vaccinia virus; assay type: functional, organism-based; conditions: Orthopoxvirus vaccinia
[17] = Antiproliferative activity against human Molt4/C8 cells; assay type: functional, cell-based; conditions: MOLT-4
[18] = Cytotoxicity against human CEM/0 cells; assay type: cell-based, CCRF-CEM
[19] = Cytotoxicity against human E6SM cells; assay type: cell-based
[20] = Cytotoxicity against human HeLa cells; assay type: cell-based
[21] = Cytotoxicity against HEL cells; assay type: cell-based; conditions: human
[22] = Antiproliferative activity against mouse L1210/0 cells; assay type: functional, cell-based
[23] = Cytotoxicity against MDCK cells; assay type: cell-based, Canis lupus familiaris; conditions: dog
[24] = Cytotoxicity against African green monkey Vero cells; assay type: cell-based; conditions: chlorocebus sabaeus
[25] = system: unidentified influenza virus; assay: Antiviral activity against Influenza virus; assay type: functional

## O=c1ccn(C[C@H]2C[C@H](O)[C@@H](CO)O2)c(=O)[nH]1
[1]
  pKd: 6.80
[2]
  IC50: 94.2 µg/mL (≈ 389 µM)

## Nc1nc2c(ncn2C[C@H]2C[C@H](O)[C@@H](CO)O2)c(=O)[nH]1
[3]
  MIC: 5 µg/mL (≈ 17.8 µM)
[4]
  MIC: 5 µg/mL (≈ 17.8 µM)

## Nc1ccn(CC2(CO)CC=CC2)c(=O)n1
[5]
  pEC50: 4.25

## Clc1ncnc2c1ncn2CC12CCC(O1)c1cc3ccccc3cc12 (stereo unspecified)
[6]
  pEC50: 5.20
[7]
  pIC50: 5.24

## Nc1ncnc2c1ncn2C[C@@H]1N[C@H](CO)[C@@H](O)[C@H]1O
[8]
  pKi: 5.44
[9]
  pKi: 5.27
[10]
  pKi: < 5.00

## CC1(C)[C@@H](CO)CC[C@@]1(C)Cn1cnc2c(Cl)ncnc21
[11]
  Activity: 13 µg/mL
[12]
  Activity: 14 µg/mL
[13]
  Activity: 9 µg/mL

## Nc1ncnc2c1ncn2CC1(CO)CC=CC1
[14]
  pEC50: 4.11

## Cc1ccc(S(=O)(=O)OC[C@H]2OC[C@@H]3OCO[C@@H]32)cc1
[15]
  IC50: > 400 µg/mL
[16]
  IC50: > 400 µg/mL

## Nc1ncnc2c1ncn2C[C@H]1CC[C@@H](CO)C1
[17]
  IC50: 73 µg/mL (≈ 295 µM)
[18]
  CC50: 80 µg/mL (≈ 323 µM)
[19]
  CC50: 80 µg/mL (≈ 323 µM)
[20]
  CC50: 80 µg/mL (≈ 323 µM)
[21]
  CC50: 80 µg/mL (≈ 323 µM)
[22]
  IC50: 73 µg/mL (≈ 295 µM)
[23]
  CC50: 80 µg/mL (≈ 323 µM)
[24]
  CC50: 80 µg/mL (≈ 323 µM)

## CC1(C)[C@@H](Cn2cnc3c(Cl)ncnc32)CC[C@@]1(C)CO
[25]
  MIC: 10 µg/mL (≈ 32.4 µM)
[17]
  IC50: 3.8 µg/mL (≈ 12.3 µM)
